We go through five compounds from ChEMBL document CHEMBL4376877, “Stepwise Evolution of Fragment Hits against MAPK Interacting Kinases 1 and 2” (J Med Chem, 2020).

Data set [1] can be described thus: Thermodynamic solubility of compound at pH 7.4. The conditions noted are these: buffer, read-out: Therm_solubility. It counts as physicochemical.
Data set [2] in a line: Permeability across apical side to basolateral side of membrane in human Caco2 cells. It counts as ADME, cell-based. As to conditions: Caco-2, read-out: permeability. A general note: Caco-2 monolayers are a common model of the intestinal barrier.
Data set [3] can be described thus: Permeability across basolateral side to apical side of membrane in human Caco2 cells. Format: ADME, cell-based. As to conditions: Caco-2, read-out: permeability.
Data set [4] can be described thus: Clearance in mouse liver microsomes. Format: ADME, Microsome. The conditions noted are these: read-out: CLH.
A short description of data set [5]: Clearance in human liver microsomes. It counts as ADME, Microsome. As to conditions: read-out: CLH. In general terms: Microsomes from liver hold many membrane-bound enzymes, among them those of drug oxidation.
A short description of data set [6]: Initial plasma concentration in mouse at 1 mg/kg, iv. Format: ADME, organism-based.
The nature of data set [7]: Terminal elimination half life in mouse at 1 mg/kg, iv. It counts as ADME, organism-based. The conditions noted are these: in vivo, read-out: beta t1/2 (converted).
The nature of data set [8]: Clearance in mouse at 1 mg/kg, iv. Format: ADME, organism-based. As to conditions: in vivo.
Data set [9] is described as follows: Apparent volume of distribution in mouse at 1 mg/kg, iv. Format: ADME, organism-based. The conditions noted are these: in vivo, read-out: Vz.
Data set [10] in a line: AUC (0 to 8 hrs) in mouse at 1 mg/kg, iv measured up to 8 hrs. Format: ADME, organism-based. Set-up: time < 8 hr, dose 1 mg/kg, route intravenous. The conditions noted are these: in vivo.
Data set [11] in a line: AUC (0 to infinity) in mouse at 1 mg/kg, iv. Further details: dose 1 mg/kg, time infinity, route intravenous. Format: ADME, organism-based. The conditions noted are these: in vivo.
Data set [12] can be described thus: Cmax in mouse at 5 mg/kg, po measured after 10 mins. It counts as ADME, organism-based. Further details: dose 5 mg/kg, route oral. The conditions noted are these: in vivo.
Data set [13] can be described thus: Tmax in mouse at 5 mg/kg, po. It counts as ADME, organism-based. As to conditions: in vivo.
Data set [14] in a line: Terminal elimination half-life in mouse at 5 mg/kg, po. It counts as ADME, organism-based. The conditions noted are these: in vivo, read-out: beta t1/2 (converted).
The nature of data set [15]: Clearance in mouse at 5 mg/kg, po. As to conditions: in vivo. It counts as ADME, organism-based.
The nature of data set [16]: Apparent volume of distribution in mouse at 5 mg/kg, po. Format: ADME, organism-based. As to conditions: in vivo.
The nature of data set [17]: AUC (0 to 8 hrs) in mouse at 5 mg/kg, po measured up to 8 hrs. Format: ADME, organism-based. Set-up: dose 5 mg/kg, time < 8 hr, route oral. As to conditions: in vivo.
Data set [18] can be described thus: AUC (0 to infinity) in mouse at 5 mg/kg, po. It counts as ADME, organism-based. Further details: dose 5 mg/kg, route oral, time infinity. As to conditions: in vivo.
Data set [19] can be described thus: Oral bioavailability in mouse at 5 mg/kg. As to conditions: in vivo. Format: ADME, organism-based.
The nature of data set [20]: Cmax in mouse at 5 mg/kg, po measured after 0.5 hrs. Format: ADME, organism-based. Further details: dose 5 mg/kg, route oral. As to conditions: in vivo.

The structures appear in SMILES notation. In brackets after ≈: the same amount, converted by molar mass. Where only a bound is given, the exact number is not on record here.

On to `Cc1c(-c2cncc(-c3ccc(C(N)=O)c(OC(C)C)c3)c2)cnn1C`, for which the solubility thermodynamic in data set [1] amounted to 7.3 µg/mL (≈ 20.8 µM). The Papp A→B in data set [2] worked out at 27 ×10⁻⁶ cm/s. The Papp B→A in data set [3] was 21 ×10⁻⁶ cm/s. Also, the values for the microsomal CLint in data set [4] and in data set [5] were 25.1 µL/min/mg and 7.9 µL/min/mg, respectively.

Consider `Cc1n[nH]c(C)c1-c1cncc(-c2ccc(C(N)=O)c(OC(C)C)c2)c1`, for which the solubility thermodynamic in [1] came out at 10 µg/mL (≈ 28.5 µM). Further, the Papp A→B in data set [2] turned out to be 6.2 ×10⁻⁶ cm/s. Moreover, the Papp B→A in data set [3] is 41 ×10⁻⁶ cm/s. Besides, the microsomal CLint in [4] was determined as 62 µL/min/mg.

`CC(C)Oc1cc(-c2cccnc2)ccc1C(N)=O`: in [6], the C0 amounted to 678 ng/mL. The solubility thermodynamic in data set [1] was 45 µg/mL (≈ 176 µM). Besides, the Papp A→B in data set [2] is 32 ×10⁻⁶ cm/s. Further, the Papp B→A in data set [3] was 20 ×10⁻⁶ cm/s. Moreover, the microsomal CLint stood at 9.4 µL/min/mg in [4] and 5.8 µL/min/mg in data set [5]. In addition, the half-life in data set [7] was 3.4 h; in data set [14], 1.6 h. Besides, the clearance – broadly, the rate of elimination divided by the concentration – in data set [8] is 100 mL/min/kg. For the same compound, the Vd in data set [9] worked out at 30 L/kg. Further, the exposure AUC(0-t) (as a rule, the area under the concentration-time curve up to a stated or last time point) at 8 h in data set [10] stood at 160 ng·h/mL; in data set [17] it was 488 ng·h/mL. The AUC(0-inf) (as a rule, total exposure, with the tail of the curve extrapolated) in data set [11] came out at 166 ng·h/mL; in [18] it was 494 ng·h/mL. Also, the Cmax (as a rule, the peak of the concentration-time curve) in data set [12] worked out at 615 ng/mL. Moreover, the Tmax (usually the time from dosing to the highest level) in data set [13] came out at 0.17 h. Besides, the apparent clearance (CL/F) (in general, clearance divided by bioavailability, as obtained after extravascular dosing) in data set [15] was 168 mL/min/kg. Moreover, the Vz in data set [16] is 23 L/kg. Besides, the bioavailability (commonly the share of a dose that reaches the circulation, judged against a reference dose that is usually intravenous) in data set [19] came out at 61%.

As for `Cc1[nH]ncc1-c1cncc(-c2ccc(C(N)=O)c(OC(C)C)c2)c1`, the solubility thermodynamic in data set [1] came out at 11 µg/mL (≈ 32.7 µM). The Papp A→B in data set [2] came out at 8.3 ×10⁻⁶ cm/s. Also, the Papp B→A in data set [3] is 33 ×10⁻⁶ cm/s. Moreover, the microsomal CLint in data set [4] was 251 µL/min/mg; in data set [5] it was 18 µL/min/mg.

In the case of `CC(C)Oc1cc(-c2cncc(-c3cnn(C4COC4)c3)c2)ccc1C(N)=O`, the solubility thermodynamic in data set [1] was 28 µg/mL (≈ 74 µM). Further, in data set [2], the Papp A→B amounted to 10 ×10⁻⁶ cm/s. Further, the Papp B→A in [3] was found to be 25 ×10⁻⁶ cm/s. In addition, the microsomal CLint is 3.1 µL/min/mg in data set [4] and less than 10 µL/min/mg in [5]. For the same compound, the half-life was 2.2 h in data set [7] and 2.8 h in data set [14]. Moreover, the clearance in data set [8] is 28.3 mL/min/kg. Besides, the Vd in data set [9] was determined as 5.5 L/kg. In addition, the figures for the exposure AUC(0-t) at 8 h in [10] and in data set [17] were 568 ng·h/mL and 2080 ng·h/mL, respectively. In addition, the AUC(0-inf) in [11] came to 579 ng·h/mL; in data set [18], 2360 ng·h/mL. In data set [13], the Tmax came out at 0.5 h. The compound also had a CL/F in [15] of 35 mL/min/kg. The Vz in data set [16] amounted to 8.7 L/kg. This compound also returned a bioavailability in [19] of 73%. Also, the peak level in data set [20] (Cmax) was 658 ng/mL.
